{"source": "patent US20250074869A1", "about": "“AMINO-COMBRETASTATIN DERIVATIVE AND USE THEREOF” (priority 2020, published 2025)", "key": {"colon cancer cells HT-29": {"tested_on": "colon cancer cells HT-29", "experiment": "Efficacy study in nude mouse with xenograft tumor, HT-29", "format": "in vivo, human", "settings": "BALB/cA-nude mice, subcutaneous xenograft, 50 mg/kg intragastric once daily for 21 days, dosed as hydrochloride", "description": "(§1) BALB/cA-nude mice aged 6 to 7 weeks were purchased from Shanghai Slac Laboratory Animal Co., Ltd. The nude mice were subcutaneously grafted with human liver cancer cells Bel-7402, colon cancer cells HT-29, gastric cancer cells SGC-7901 or non-small cell lung cancer cells A549. After the tumor grew to 100 to 250 mm^3, the animals were randomized (d0). The tumor volumes and body weights were measured twice or thrice a week, and the data were recorded. Tumor volume (V) was calculated as follows:\n(§2) [formula] • wherein a and b represent length and width, respectively; T and C are the tumor volumes at the end of study; T0 and C0 are the tumor volumes at the start of study.\n(§3) All samples were diluted to the desired concentration with 50% PEG400 in distilled water. The regimen was once daily for 21 days at 50 mg/kg mouse body weight through intragastric administration, and 50 mg/kg for the control. The compounds obtained in Examples 1, 3, 4, 5, 6, 7, 8, 9, 10, 11, 12, 13 and 14 and the control were prepared into corresponding hydrochloride as the dosing compounds according to the method disclosed in Example 2 to investigate their efficacy on human liver cancer cell Bel-7402, colon cancer cell HT-29, gastric cancer cell SGC-7901 or non-small cell lung cancer cell A549 xenograft tumors in nude mice and to compare the compounds with the control (prepared as in Example 16)."}, "Male ICR mice": {"tested_on": "Male ICR mice", "experiment": "Acute toxicity study in animals (oral LD50)", "settings": "mouse, in vivo", "source_text": "Male ICR mice weighed 23±2 g, clean grade, were selected. The route of administration was intragastric (ig) administration, which is consistent with the intended oral route for clinical use.\nMice were randomly divided into 8 groups by weight: the blank control group, Example 1 group, Example 5 group, Example 11 group, Example 12 group, Example 13 group, Example 14 group and control group. Among these, the control group received amino-combretastatin serinamide hydrochloride as the control (hereinafter referred to as control).\nPreparation of the compounds used in the example groups: The compounds obtained in Example 1, Example 3. Example 4. Example 5. Example 6. Example 7. Example 8. Example 9. Example 10. Example 11. Example 12, Example 13 and Example 14 were prepared into hydrochloride salts according to the method disclosed in Example 2.\nPre-treatment: […] were deprived of food but not water for 12 h before the study. and randomized into groups of 10 by body weight. The treatment groups were intragastrically administered once at 0.25 mL/10 g body weight, and the water control group received an equivalent amount of distilled water through intragastric administration. The LD100 value (the amount for 100% death), LD0 (the amount for 0 death) and the corresponding range r value between the dose groups were calculated, and LD50 was determined.\nStudy procedures: 160 mice were randomized into 8 groups of 20 mice by body weight. After deprivation of food but not water for 12 h before the study, each group was intragastrically given the compound once at 0.3 mL/10 g body weight. Since no death was observed after 12 h, the second dose was given. The control group received equivalent volumes of water. The daily dose of each group was calculated; the control group received equal volumes of water and was subjected to an acute toxicity study for observation and the body weight of the mice was recorded daily for 14 days."}, "[1]": {"tested_on": "human liver cancer cells Bel-7402", "experiment": "Efficacy study in nude mouse with xenograft tumor, Bel-7402", "format": "in vivo", "settings": "BALB/cA-nude mice, subcutaneous xenograft, 50 mg/kg intragastric once daily for 21 days, dosed as hydrochloride", "description": "as §1, §2, §3"}, "[2]": {"tested_on": "gastric cancer cells SGC-7901", "experiment": "Efficacy study in nude mouse with xenograft tumor, SGC-7901", "format": "in vivo, human", "settings": "BALB/cA-nude mice, subcutaneous xenograft, 50 mg/kg intragastric once daily for 21 days, dosed as hydrochloride", "description": "as §1, §2, §3"}, "[3]": {"tested_on": "non-small cell lung cancer cells A549", "experiment": "Efficacy study in nude mouse with xenograft tumor, A549", "format": "in vivo, human", "settings": "BALB/cA-nude mice, subcutaneous xenograft, 50 mg/kg intragastric once daily for 21 days, dosed as hydrochloride", "description": "as §1, §2, §3"}}, "data": [{"substance": "amino-combretastatin serinamide hydrochloride [Control, reference compound]", "values": [{"measurement": "% tumor inhibition (D21) HT-29", "setting": "colon cancer cells HT-29", "result": 42, "unit": "%"}, {"measurement": "LD50", "setting": "Male ICR mice", "result": 200, "unit": "mg/kg"}, {"measurement": "% tumor inhibition (D21) Bel-7402", "setting": "[1]", "result": 39, "unit": "%"}, {"measurement": "% tumor inhibition (D21) SGC-7901", "setting": "[2]", "result": 34, "unit": "%"}, {"measurement": "% tumor inhibition (D21) A549", "setting": "[3]", "result": 30, "unit": "%"}]}]}
